The target in one test is T1, human ENT1 (Homo sapiens, UniProt Q99808).
T1 construct: JAR cells expressing ENT1 were purchased from ATCC; host or cells: JAR cells
T1 sequence (Q99808 1-456): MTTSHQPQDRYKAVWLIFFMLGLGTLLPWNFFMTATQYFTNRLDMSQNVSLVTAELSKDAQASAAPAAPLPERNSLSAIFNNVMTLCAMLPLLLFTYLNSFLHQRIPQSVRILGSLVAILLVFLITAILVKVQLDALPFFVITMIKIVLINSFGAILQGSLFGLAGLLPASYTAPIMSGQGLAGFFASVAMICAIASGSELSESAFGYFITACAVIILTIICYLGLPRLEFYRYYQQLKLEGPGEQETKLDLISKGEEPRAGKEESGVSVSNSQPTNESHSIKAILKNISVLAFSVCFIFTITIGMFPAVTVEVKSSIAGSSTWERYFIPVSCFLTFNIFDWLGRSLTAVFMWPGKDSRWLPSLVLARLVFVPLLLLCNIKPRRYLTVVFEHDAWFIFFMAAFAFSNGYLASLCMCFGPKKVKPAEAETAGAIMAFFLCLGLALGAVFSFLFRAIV
Description: ENT1 binding assay (competition with Sahenta-DY647 on JAR cells). Conditions: competition with SAHENTA-DY647 binding; IC50 categorized; read-out: Binding Assay IC50. An outline of the steps:
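Fluorescent-tracer displacement: compound incubated with JAR cells 30 min, 4 °C, before Sahenta-DY647 (100 nM) for another 30 min, 4 °C, in Hepes-buffered HBSS with 0.1% BSA. Bound tracer read at 670 nm after washes; IC50 from four-parameter fit, reported as mean of pIC50 values.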

Test [1] concerns stimulated primary human T cells. Description: T cell proliferation assay, Condition B (X-VIVO15, 2% HSA and 0.1% AAG). The settings on record: Homo sapiens, T-cell, 96 h; Condition B: X-VIVO15 medium containing HSA and α1-Acid Glycoprotein; anti-CD3/anti-CD28 beads, ATP, 4 days; CFSE-lo T cells. The test is classed as cell-based. As to the method: (§1) The goal of this study was to determine the potency of ENT1 inhibitors by measuring the rescued proliferation of stimulated primary human T cells incubated in the presence of 100 uM Adenosine triphosphate (ATP), in baseline conditions (condition A) or in the presence of various proteins known to bind small molecules (condition B).
Condition B: X-VIVO15, 2% Human Serum Albumin (HSA) and 0.1% α-1-Acid Glycoprotein (AAG)
(§2) Venous blood from healthy volunteers, all of whom signed an informed consent approved by the Ethics Committee (FOR—UIC—BV-050-01-01 ICF_HBS_HD Version 5.0), was obtained by ImmuneHealth (Centre Hospitalier Universitaire Tivoli, La Louviere, Belgium). Mononuclear cells were collected by density gradient centrifugation, using SepMate-50 tubes (StemCell Technologies, Grenoble, France) and Lymphoprep (Stemcell Technologies) according to the manufacturer's instructions. CD3+ T cells were isolated by immunomagnetic negative selection, using the EasySep Human T Cell Isolation Kit (StemCell Technologies) as per the manufacturer's instructions. CD3+ T cells were stored in heat inactivated FBS (hiFBS; Gibco, ThermoFisher Scientific, Merelbeke, Belgium) and 10% DMSO in liquid nitrogen.
(§3) Purified human CD3+ T cells were thawed and washed once with RPMI1640 medium, UltraGlutamine (Lonza, Verviers, Belgium) containing 10% hiFBS. Cells were resuspended in PBS containing 10% hiFBS at 1×10^7 cells/ml. One volume of cells was combined with a matching volume of 2 μM CFSE solution in PBS, mixed well by pipetting, and incubated at room temperature for 5 minutes under rotation and protected from light. Excess CFSE was quenched by addition of PBS containing 10% hiFBS, and the cells were centrifuged (300×rcf, 7 minutes) and resuspended in X-VIVO15. Cells were again centrifuged and resuspended in X-VIVO15 for counting.
(§4) Cells were resuspended at 1.6×10^6 cells/mL in X-VIVO15 medium (Condition A) or X-VIVO15 medium containing 4% (v/v) HSA (Sigma-Aldrich, Diegem, Belgium) and 0.2% (v/v) ai-Acid Glycoprotein (Sigma-Aldrich, Diegem, Belgium) (Condition B).
(§5) […] of cell suspension (2×10^4 cells) was added to wells of sterile flat-bottom 384-well plates. Cells were activated by adding […] of anti-CD3 anti-CD28 coated microbeads (Dynabeads human T-activator CD3/CD28; Life Technologies, Paisley, UK) suspended in X-VIVO15 medium or X-VIVO15 medium containing 4% (v/v) HSA and 0.2% (v/v) ai-Acid Glycoprotein at a ratio of one microbead per two cells. Serial dilutions of the ENT1 inhibitors were conducted in X-VIVO15 medium and […] of the diluent was added to the wells. Cells were mixed by pipetting up and down and pre-incubated for 30 minutes in a 37° C. humidified tissue culture incubator with 5% CO2. After pre-incubation, cells were cultured in the presence or absence of ATP (Sigma-Aldrich) at a final concentration of […]. The final well volume was 50 μl in all cases. Experiments were performed in biological duplicates. Cells were mixed by pipetting up and down and incubated for 4 days in a 37° C. humidified tissue culture incubator with 5% CO2.
(§6) Samples were run on a BD LSR Fortessa FACS machine (BD FACSDiva Software v9.0.1). Data were analyzed using FlowJo (BD, v10.7.1). T cell proliferation was determined by measuring the frequency of ‘CFSE^lo’ (i.e. CFSE-diluted).
(§7) T cell proliferation data were analyzed using FlowJo software (Version 10.6.2). Dead cells and cellular debris were excluded on the basis of forward and side scatter profile and singlet cells were selected for further analysis.
(§8) T cell proliferation was determined based on the percent CFSE^lo total T cells for each condition. The data were plotted on the y-axis against log molar (M) concentration of ENT1 inhibitors on the x-axis in GraphPad Prism (version 9.0.0). IC50 and IC90 values were generated with the ‘log(agonist) vs. response—Find ECanything(F))’ function with F constrained to 50 or 90, respectively. pICF values were generated by taking the −logECF values.

For test [2] the test system is unchanged. Description: T cell proliferation assay, Condition A (X-VIVO15). The settings on record: Homo sapiens, T-cell, 96 h; Condition A: X-VIVO15 medium; anti-CD3/anti-CD28 beads, ATP, 4 days; CFSE-lo T cells. The test is classed as cell-based. Here is the method:
as §1, §2, §3, §4, §5, §6, §7, §8

The record followed here is patent US20260184712A1, “Heterocyclic Compounds as ENT Inhibitors and Compounds for Use in the Treatment of Cancers” (iTeos Belgium SA, priority 2022, published 2026).

On to `Cc1nc(CNc2nc3c(OCc4ccc(C#N)cc4)ncnc3n2[C@@H]2O[C@H](C)[C@@H](O)[C@H]2O)no1` [Compound 68], for which the IC50 – broadly, the concentration that inhibits the measured activity by half – is 1 to 20 nM at human ENT1 and 20 to 500 nM in test [1].

For `CC(C)Nc1nc2c(OCc3ccc([N+](=O)[O-])cc3)ncnc2n1[C@@H]1O[C@H](C)[C@@H](O)[C@H]1O` [Compound 25], the figures for the 50% inhibitory concentration (IC50) (in test [2]; on human ENT1; in test [1]) were less than 1 nM, less than 1 nM and 1 to 20 nM, respectively.

For the compound `C[C@H]1O[C@@H](n2c(NCC3CCC(F)(F)CC3)nc3c(OCc4ccc(OC(F)F)nc4)ncnc32)[C@H](O)[C@@H]1O` [Compound 116], the IC50 on human ENT1 lay within 1 to 20 nM; in test [1], 20 to 500 nM.

For `C[C@H]1O[C@@H](n2cnc3c(OCc4ccc(C#N)c(F)c4)ncnc32)[C@H](O)[C@@H]1O` [Compound 174], the values for the IC50 (in test [2]; on human ENT1; in test [1]) were 1 to 20 nM, 20 to 500 nM and more than 500 nM, respectively.

`C[C@H]1O[C@@H](n2cnc3c(N4CCc5cc([N+](=O)[O-])ccc5C4)ncnc32)[C@H](O)[C@@H]1O` [Compound 196]: the IC50 in test [2] was 1 to 20 nM; on human ENT1, 20 to 500 nM; in test [1], more than 500 nM.

Turning to `C[C@H]1O[C@@H](n2c(NC3CCCC3)nc3c(OCc4ccc(C#N)cc4)ncnc32)[C@H](O)[C@@H]1O` [Compound 12], the values for the IC50 (in test [2]; at human ENT1; in test [1]) were less than 1 nM, less than 1 nM and 20 to 500 nM, respectively.

For `C[C@H]1O[C@@H](n2cnc3c(OCc4ccc(OC(F)(F)F)cc4)ncnc32)[C@H](O)[C@@H]1O` [Compound 180], the IC50 in test [2] is 1 to 20 nM; at human ENT1, 20 to 500 nM; in test [1], more than 500 nM.

For the compound `C[C@H]1O[C@@H](n2c(NC3CCS(=O)(=O)CC3)nc3c(OCc4ccc(OC(F)F)cc4)ncnc32)[C@H](O)[C@@H]1O` [Compound 55], the IC50 in test [2] is less than 1 nM; at human ENT1, less than 1 nM; in test [1] it was 1 to 20 nM.

For the compound `C[C@H]1O[C@@H](n2c(NC3CC3)nc3c(OCc4ccc([N+](=O)[O-])cc4)ncnc32)[C@H](O)[C@@H]1O` [Compound 26], the IC50 in test [2] was in the range of 1 to 20 nM; at human ENT1, 1 to 20 nM; in test [1] it was 20 to 500 nM.

`Cc1cc(COc2ncnc3c2nc(NC2CCOCC2)n3[C@@H]2O[C@H](C)[C@@H](O)[C@H]2O)ccc1[N+](=O)[O-]` [Compound 103]: the IC50 at human ENT1 was less than 1 nM; in test [1], 20 to 500 nM.

`CC(C)Nc1nc2c(OCc3ccc(C#N)cc3)ncnc2n1[C@@H]1O[C@H](C)[C@@H](O)[C@H]1O` [Compound 40]: the IC50 in test [2] is less than 1 nM; at human ENT1, 1 to 20 nM; in test [1], 20 to 500 nM.

Consider `C[C@H]1O[C@@H](n2cnc3c(/C=C/c4ccc([N+](=O)[O-])cc4)ncnc32)[C@H](O)[C@@H]1O` [Compound 157], for which the IC50 in test [2] was less than 1 nM; on human ENT1 it was 1 to 20 nM; in test [1], 20 to 500 nM.

As to `Cc1nc(-c2ccc(CSc3ncnc4c3ncn4[C@@H]3O[C@H](C)[C@@H](O)[C@H]3O)cc2)no1` [Compound 186], the results for the IC50 (in test [2]; at human ENT1; in test [1]) were 1 to 20 nM, 20 to 500 nM and more than 500 nM, respectively.

As for `COC(=O)[C@H]1O[C@@H](n2cnc3c(SCc4ccc([N+](=O)[O-])cc4)ncnc32)[C@H](O)[C@@H]1O` [Compound 152], the results for the IC50 (in test [2]; on human ENT1; in test [1]) were more than 500 nM, 1 to 20 nM and more than 500 nM, respectively.

For `C[C@H]1O[C@@H](n2c(NC3CCC(O)C3)nc3c(OCc4ccc(C(F)(F)F)cc4)ncnc32)[C@H](O)[C@@H]1O` (stereo partly drawn) [Compound 100], the IC50 on human ENT1 is 1 to 20 nM; in test [1] it was 20 to 500 nM.

Regarding `C[C@H]1O[C@@H](n2c(NCC3CCC(F)(F)C3)nc3c(OCc4ccc(OC(F)F)nc4)ncnc32)[C@H](O)[C@@H]1O` (stereo partly drawn) [Compound 115], the IC50 is 1 to 20 nM on human ENT1 and more than 500 nM in test [1].

Turning to `C[C@H]1O[C@@H](n2c(NC3CCCC3)nc3c(OCc4ccc(C#N)nc4)ncnc32)[C@H](O)[C@@H]1O` [Compound 74], the figures for the IC50 (on human ENT1; in test [1]) were 1 to 20 nM and 20 to 500 nM, respectively.

As for `C[C@H]1O[C@@H](n2c(NC3CCOCC3)nc3c(OCc4ccc(C#N)nc4)ncnc32)[C@H](O)[C@@H]1O` [Compound 76], the IC50 at human ENT1 fell in the range of 1 to 20 nM; in test [1], 20 to 500 nM.

With `C[C@H]1O[C@@H](n2c(Nc3cnn(C)c3)nc3c(OCc4ccc(OC(F)F)cc4)ncnc32)[C@H](O)[C@@H]1O` [Compound 64], the IC50 lay in the range of 1 to 20 nM on human ENT1 and 20 to 500 nM in test [1].

Take `C[C@H]1O[C@@H](n2c(NCc3cnn(C)c3)nc3c(OCc4ccc(OC(F)F)cc4)ncnc32)[C@H](O)[C@@H]1O` [Compound 66]: the values for the IC50 (on human ENT1; in test [1]) were 1 to 20 nM and 20 to 500 nM, respectively.

As to `C[C@H]1O[C@@H](n2c(NCc3ccc(C#N)nc3)nc3c(OCc4ccc(C#N)cc4)ncnc32)[C@H](O)[C@@H]1O` [Compound 70], the IC50 was 1 to 20 nM at human ENT1 and 20 to 500 nM in test [1].

`C[C@H]1O[C@@H](n2c(N[C@H]3CCOC3)nc3c(OCc4ccc(C#N)cc4)ncnc32)[C@H](O)[C@@H]1O` [Compound 78]: the IC50 is 1 to 20 nM on human ENT1 and 20 to 500 nM in test [1].

For the compound `C[C@H]1O[C@@H](n2c(NC3CCCC3)nc3c(OCc4ccc(OC(F)(F)F)nc4)ncnc32)[C@H](O)[C@@H]1O` [Compound 87], the IC50 lay within 1 to 20 nM on human ENT1 and 20 to 500 nM in test [1].

`COCCCNc1nc2c(OCc3ccc(OC(F)F)cc3)ncnc2n1[C@@H]1O[C@H](C)[C@@H](O)[C@H]1O` [Compound 46]: the IC50 at human ENT1 was in the range of 1 to 20 nM; in test [1], 20 to 500 nM.

For the compound `CC(=O)N1CCC(Nc2nc3c(OCc4ccc(C#N)cc4)ncnc3n2[C@@H]2O[C@H](C)[C@@H](O)[C@H]2O)CC1` [Compound 80], the IC50 at human ENT1 is less than 1 nM; in test [1] it was 1 to 20 nM.

As for `C[C@H]1O[C@@H](n2c(N[C@H]3CC[C@](C)(O)CC3)nc3c(OCc4ccc(OC(F)F)cc4)ncnc32)[C@H](O)[C@@H]1O` [Compound 121], the IC50 at human ENT1 lay in the range of 1 to 20 nM; in test [1] it was 20 to 500 nM.
